Measured values published in patent US8829014B2, “Thiazole and thiophene analogues, and their use in treating autoimmune diseases and cancers” (Board of Supervisors of Louisiana State University and …, priority 2006, dated 2014).
Entries after “also recorded” stand apart in the source; their conditions may differ. Read-outs that look alike come from different tables or passages of the source. Marks after values point to notes of the source that are not given here.

How the values were obtained:
NF-κB [1] = assay: NF-κB inhibitor screen: basal NF-κB-dependent luciferase expression in HEK/NF-κB cell line; assay type: cell-based; conditions: for inhibition at 1 µM: determined as described in Example 398, read-out: NFkB inhibition @ 1 uM; for inhibition of NF-κB (summary statement): summary in the disclosure
Procedure, shortened: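 Basal NF-κB-driven luciferase (six-copy element, stable HEK293 line) was read with Brite-Glo. Compound was added in 0.3% DMSO 24 h post-plating, initially at 1.0 μM and then across 10–3300 nM in six steps, in triplicate wells. Signals were expressed relative to DMSO or to the lowest concentration tested.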

AP-1 [2] = assay: AP-1 inhibitor screen: basal AP-1-dependent luciferase expression in HEK/AP-1 cell line; assay type: cell-based; conditions: for inhibition at 1 µM: AP1, determined as described in Example 398
Procedure, shortened: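 Compound effects on unstimulated reporter signal were tested: 1.0 μM compound (0.3% DMSO) for 48 hr on HEK cells bearing an AP-1 (TGACTAA ×3)-luciferase construct, seeded 24 hr earlier. Triplicate luminescence means were normalized to DMSO-only wells; dose-response experiments were repeated 2–4 times.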

carageenan-induced edema = assay: Carrageenan-induced rat paw edema test (anti-inflammatory activity); assay type: in vivo, Sprague-Dawley rats; conditions: for inhibition in vivo at 50 mg/kg: po, 3 h, carrageenan-induced rat paw edema, defined in Example 397, read-out: % Protection
Procedure, shortened: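 Edema was raised by sub-plantar injection of 1% carrageenan into the right hind paw, 1 h after dosing 18 h-fasted male/female Sprague-Dawley rats (150-250 g) with 50 mg/kg p.o. in 0.1% CMC. Swelling was measured by displacement 3 h later and expressed as % protection against saline control.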

AP-1 [3] = assay: PMA-induced AP-1 luciferase expression in HEK cells; assay type: cell-based
NF-κB [4] = assay: TNF-α-induced NF-κB-dependent luciferase expression in HEK cells; assay type: cell-based; set-up: NF-κB % inhibition: concentration or dose not given beside the values

| IC50 (NF-κB [4]; 20 ng/ml TNF-α, 24 hr (FIG. 15), read-out: IC50, TNF-α induced NF-κB gene expression) | Compound | inhibition at 1 µM (NF-κB [1]) | inhibition of NF-κB (summary statement) (NF-κB [1]) | inhibition at 1 µM (AP-1 [2]) | inhibition in vivo at 50 mg/kg (carageenan-induced edema) | AP-1 % inhibition (AP-1 [3]; PMA-induced, compound added 1 h before inducer, luciferase 24 h later, normalized to DMSO vehicle) | inhibition in vivo at 50 mg/kg (carageenan-induced edema; Rattus norvegicus) | NF-κB % inhibition (NF-κB [4]; TNF-α-induced, compound added 1 h before inducer, luciferase 24 h later, normalized to DMSO vehicle) | AP-1 inhibition @ 1 uM (AP-1 [3]; 1 uM, luciferase in HEK/AP-1 cells, as described in Example 398) | basal NF-κB-dependent luciferase, six-point dose response (NF-κB [1]; 10 nM-3300 nM (FIG. 12), listed as Compound 35) | inhibition of basal NF-κB-dependent luciferase expression (NF-κB [1]; 3.3 μM (FIG. 12)) | basal AP-1-dependent luciferase, six-point dose response (AP-1 [2]; 10 nM-3300 nM (FIG. 14)) | % Protection P (carageenan-induced edema; rat paw edema, 50 mg/kg, reading 3 hours after carrageenan, [(Control−Test)/Control]×100%) | NFkB inhibition @ 1 uM (NF-κB [4]; 1 uM, luciferase in HEK/NF-κB cells, as described in Example 398) |
| --- | --- | --- | --- | --- | --- | --- | --- | --- | --- | --- | --- | --- | --- | --- |
|  | COc1ccc(-n2c(-c3sc(Nc4ccc(Cl)cc4)nc3-c3ccccc3)nc3ccccc3c2=O)cc1 [Example 225, 2-[2-(4-Chloro-phenylamino)-4-phenyl-thiazol-5-yl]-3-(4-methoxyphenyl)-3H-quinazolin-4-one] | 47% | capable of inhibiting | 58% | 80% |  |  |  |  |  |  |  |  |  |
|  | CNc1nc(C)c(-c2nc3ccccc3c(=O)n2-c2ccc(Cl)cc2)s1 [Example 244, 2-(4-Methyl-2-methylamino-thiazol-5-yl)-3-(4-chloro-phenyl)-3H-quinazolin-4-one] | 93% |  | 82% |  | 87** % | 71% | 0% |  |  |  |  |  |  |
| < 100 nM | Bis-[2-(4-Chloro-phenylamino)-4-benzayl-thiazole-5-yl]-methanone [Example 134] |  | capable of inhibiting |  |  |  |  |  | 72.77 | substantial activity at submicromolar concentrations; also recorded: robust inhibition | about 50% | substantial activity at submicromolar concentrations | 75.69% | 67.87 |
